Results taken from patent US12570615B2, “Quinazolinone derivatives” (Hoffmann-La Roche Inc., priority 2021, dated 2026).
Where a name gives a salt, the structure may show the parent alone.

How the values were obtained:
[1] = test system: P-ERK (ERK phospho-T202/Y204) in HCT116 cells expressing WT BRAF; assay: HTRF assay for P-ERK determination in HCT116 cells (BRAF activation); assay type: cell-based; details: Homo sapiens, HCT-116, drug incubation 1 hour, concentration giving 50% of the maximum activation achieved by Dabrafenib
Description: (§1) A375 is a cellular cancer model expressing V600E mutated BRAF and HCT116 a cellular cancer model expressing WT BRAF. First generation BRAF inhibitors such as e.g. dabrafenib induce a paradox effect on tumour cells in that they inhibit the growth of V600E mutated BRAF cells (such as e.g. A375), while they activate growth in WT BRAF cells (such as e.g. HCT 116). ERK 1,2 phosphorylation (terminal member of the phosphorylation cascade of the MAPK pathway) is hereafter reported as main readout for the activation status of the MAPK pathway. DMEM no-phenol red medium supplemented with L-glutamine was purchased from (Thermo Fisher Scientific). Fetal bovine serum (FBS) was purchased from VWR. Advanced ERK phospho-T202/Y204 kit—10,000 tests was purchased from Cisbio cat #64AERPEH. A375 (catalog #CRL-1619) and HCT116 (catalog #CCL-247) cells were originally obtained from American type Culture Collection (ATCC) and banked by the Roche repository. 384-Well microplates utilized were purchased from Greiner Bio-One, 384-well, (With Lid, HiBase, Low volume cat 784-080).
(§2) Prior to the assay, A375 and HCT116 cell lines are maintained in DMEM no-phenol red medium supplemented with 10% fetal bovine serum (FBS). Following compound treatment, P-ERK levels are determined by measuring FRET fluorescence signal induced by selective binding of 2 antibodies provided in the mentioned kit (Cisbio cat #64AERPEH) on ERK protein when phosphorylated at Thr202/Tyr204. Briefly, 8000 cells/well in 12 μl media/well are plated in the 384-well plate and left overnight in the incubator (at 37° C. with 5% CO2-humidified atmosphere), the following day the plate is treated in duplicate with test compounds, dabrafenib and PLX8394 (the latter two as controls) at the following final drug concentrations: 10 μM-3 μM 1 μM-0.3 μM-0.1 μM-0.03 μM-0, 01 μM-0.003 μM-0.001 μM, all wells are subjected to DMSO normalization and drug incubation occurs for 1 hour. Then, […] of a 4× lysis buffer supplied with the kit are added to the wells, the plate is then centrifuged for 30 second (3000 rpm) and incubated on a plate shaker for 1 h at rt.
(§3) At the end of the incubation 4 μL/well of advanced P-ERK antibody solution (prepared according to manufacturer's instruction) followed by 4 μL/well of criptate P-ERK antibody solution (prepared according to manufacturer's instruction) (Cisbio cat #64AERPEH) are added to test wells.
(§4) In order to allow proper data normalization control wells non drug treated reported in the following table are always included in each plate (according to manufacturer's instruction):
(§5) The plate is then centrifuged at 3000 rpm for 30 second, sealed to prevent evaporation and incubated overnight in the dark at room temperature.
(§6) The plate is then analyzed and fluorescence emission value collected through a Pherastast FSX (BMG Labtech) apparatus at […].
(§7) The obtained fluorescence values are processed according to the formula Ratio=[…]*10000 then the average of the ratio on the blank is subtracted to all values.
Data are normalized in the case of HCT116 cells (BRAF activation) considering the average of the ratio (blank subtracted) derived by DMSO only treated cells as 0% and by considering the average of the ratio (blank subtracted) derived by Dabrafenib treated cells at the concentration which provides the highest signal as 100%. Individual points are fitted with either sigmoidal or bell shape curves. The EC50 is the concentration at which activation equal to 50% of the maximum activation achieved by Dabrafenib is obtained.

[2] = test system: P-ERK (ERK phospho-T202/Y204) in A375 cells expressing V600E mutated BRAF; assay: HTRF assay for P-ERK determination in A375 cells (BRAF inhibition); assay type: cell-based; details: Homo sapiens, A-375, P-ERK level, drug incubation 1 hour, DMSO = 100%, 10 μM Dabrafenib = 0%
Description: as §1, §2, §3, §4, §5, §6, §7
Data are normalized in the case of A375 cells (BRAF inhibition) considering the average of the ratio (blank subtracted) derived by DMSO only treated cells as 100% and by considering the average of the ratio (blank subtracted) derived by 10 μM Dabrafenib treated cells as 0%. Mean of the normalized points are fitted with sigmoidal curve and IC50 determined.

BRAF (wt) = BRAF (wt) (Homo sapiens, UniProt P15056); assay: KD BRAF (wt) (Table 1); assay type: binding
BRAF (V600E) = BRAF (V600E) (Homo sapiens, UniProt P15056, V600E); assay: KD BRAF (V600E) (Table 1); assay type: binding
BRAF (V600E), sequence (P15056 whole entry V600E): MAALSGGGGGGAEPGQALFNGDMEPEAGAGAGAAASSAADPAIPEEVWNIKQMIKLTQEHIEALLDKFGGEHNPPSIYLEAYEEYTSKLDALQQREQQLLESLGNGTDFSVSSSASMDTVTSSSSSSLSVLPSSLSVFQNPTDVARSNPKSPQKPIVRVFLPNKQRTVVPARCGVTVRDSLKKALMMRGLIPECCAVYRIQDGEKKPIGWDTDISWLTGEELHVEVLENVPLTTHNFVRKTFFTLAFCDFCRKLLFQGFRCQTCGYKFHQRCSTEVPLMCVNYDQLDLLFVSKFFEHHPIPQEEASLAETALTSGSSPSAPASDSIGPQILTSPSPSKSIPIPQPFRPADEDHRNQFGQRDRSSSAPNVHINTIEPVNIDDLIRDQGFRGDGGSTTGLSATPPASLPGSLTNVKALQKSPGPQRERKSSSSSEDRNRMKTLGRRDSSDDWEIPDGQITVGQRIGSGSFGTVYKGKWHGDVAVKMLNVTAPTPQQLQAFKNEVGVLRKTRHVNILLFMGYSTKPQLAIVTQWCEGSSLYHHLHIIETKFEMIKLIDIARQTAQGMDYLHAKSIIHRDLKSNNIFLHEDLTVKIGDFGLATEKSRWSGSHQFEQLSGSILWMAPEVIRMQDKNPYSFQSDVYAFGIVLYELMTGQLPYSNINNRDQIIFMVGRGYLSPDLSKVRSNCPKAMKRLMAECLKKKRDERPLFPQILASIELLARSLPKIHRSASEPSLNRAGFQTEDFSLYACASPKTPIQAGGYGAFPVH

BRAF (wt), sequence (P15056 whole entry): as the sequence (P15056 whole entry V600E) above, with E600V counted along it

SMILES | EC50 [1] [nM] | IC50 [2] [nM] | Kd (BRAF (wt)) [nM] | Kd (BRAF (V600E)) [nM]
CC(C)(C)OC(=O)N1CCCC(CCn2cnc3ccc(Oc4c(F)ccc(NS(=O)(=O)C5CCCC5)c4C#N)cc3c2=O)C1 (centres unmarked) [Example 22, tert-butyl 3-[2-[6-[2-cyano-3-(cyclopentylsulfonylamino)-6-fluoro-phenoxy]-4-oxo-quinazolin-3-yl]ethyl]piperidine-1-carboxylate] | ≥ 10000 | 155 | 27.9 | 28.9
N#Cc1c(Nc2ccc3ncn(CCCC(=O)O)c(=O)c3c2)cccc1NS(=O)(=O)N1CC[C@@H](F)C1 [Example 39, 4-[6-[2-cyano-3-[[(3R)-3-fluoropyrrolidin-1-yl]sulfonylamino]anilino]-4-oxo-quinazolin-3-yl]butanoic acid] | ≥ 10000 | ≥ 10000 | 11.6 | 48.3
CCN(C)S(=O)(=O)Nc1cccc(Nc2ccc3ncn(CCOCCOCCN)c(=O)c3c2)c1C#N [Example 38, 3-[2-[2-(2-aminoethoxy)ethoxy]ethyl]-6-[2-cyano-3-[[ethyl(methyl)sulfamoyl]amino]anilino]-4-oxo-quinazoline hydrochloride] | ≥ 10000 | 5740 | 174 | 443
CN(CCCn1cnc2ccc(Oc3c(F)ccc(NS(=O)(=O)N4CCCC4)c3C#N)cc2c1=O)C(=O)OC(C)(C)C [Example 19, tert-butyl N-[3-[6-[2-cyano-6-fluoro-3-(pyrrolidin-1-ylsulfonylamino)phenoxy]-4-oxo-quinazolin-3-yl]propyl]-N-methyl-carbamate] | ≥ 10000 | 103 | 0.93 | 2.31
CC(C)(C)OC(=O)N1CCC(CCn2cnc3ccc(Nc4cccc(NS(=O)(=O)N5CCCC5)c4C#N)cc3c2=O)CC1 [Example 46, tert-butyl 4-[2-[6-[2-cyano-3-(pyrrolidin-1-ylsulfonylamino)anilino]-4-oxo-quinazolin-3-yl]ethyl]piperidine-1-carboxylate] | 2540 | 20.6 | 21.2 | 73.5
CC(C)(C)OC(=O)N1CCC(CCn2cnc3ccc(Oc4c(F)ccc(NS(=O)(=O)C5CCCCC5)c4C#N)cc3c2=O)CC1 [Example 14, tert-butyl 4-[2-[6-[2-cyano-3-(cyclohexylsulfonylamino)-6-fluoro-phenoxy]-4-oxo-quinazolin-3-yl]ethyl]piperidine-1-carboxylate] | 4850 | 254 | 54.3 | 114
CC(C)(C)OC(=O)N1CCC(CCn2cnc3ccc(Oc4c(F)ccc(NS(=O)(=O)N5CCCC5)c4C#N)cc3c2=O)CC1 [Example 7, tert-butyl 4-[2-[6-[2-cyano-6-fluoro-3-(pyrrolidin-1-ylsulfonylamino)phenoxy]-4-oxo-quinazolin-3-yl]ethyl]piperidine-1-carboxylate] | 2100 | 52 | 12.2 | 20.8
CC(C)(C)OC(=O)NCCCn1cnc2ccc(Nc3cccc(NS(=O)(=O)N4CC[C@@H](F)C4)c3C#N)cc2c1=O [Example 43, tert-butyl N-[3-[6-[2-cyano-3-[[(3R)-3-fluoropyrrolidin-1-yl]sulfonylamino]anilino]-4-oxo-quinazolin-3-yl]propyl]carbamate] | 5610 | 74.6 | 4.47 | 7.18
CN(C1CC1)S(=O)(=O)Nc1cccc(Nc2ccc3ncn(CCCC(=O)OC(C)(C)C)c(=O)c3c2)c1C#N [Example 42, tert-butyl 4-[6-[2-cyano-3-[[cyclopropyl(methyl)sulfamoyl]amino]anilino]-4-oxo-quinazolin-3-yl]butanoate] | 6200 | 162 | 79.2 | 203
CCN(C)S(=O)(=O)Nc1cccc(Nc2ccc3ncn(CC4CCN(C(C)=O)CC4)c(=O)c3c2)c1C#N [Example 33, 3-[(1-acetyl-4-piperidyl)methyl]-6-[2-cyano-3-[[ethyl(methyl)sulfamoyl]amino]anilino]-4-oxo-quinazoline] | ≥ 10000 | 576 | 45.6 | 92.9
CC(C)(C)OC(=O)N1CCN(CCn2cnc3ccc(Oc4c(F)ccc(NS(=O)(=O)N5CC[C@@H](F)C5)c4C#N)cc3c2=O)CC1 [Example 10, tert-butyl 4-[2-[6-[2-cyano-6-fluoro-3-[[(3R)-3-fluoropyrrolidin-1-yl]sulfonylamino]phenoxy]-4-oxo-quinazolin-3-yl]ethyl]piperazine-1-carboxylate] | 1530 | 36.7 | 3.51 | 4.82
CC(C)(C)OC(=O)N1CCN(CCn2cnc3ccc(Oc4c(F)ccc(NS(=O)(=O)C5CCCC5)c4C#N)cc3c2=O)CC1 [Example 25, tert-butyl 4-[2-[6-[2-cyano-3-(cyclopentylsulfonylamino)-6-fluoro-phenoxy]-4-oxo-quinazolin-3-yl]ethyl]piperazine-1-carboxylate] | 802 | 7.63 | 4.14 | 7.06
CCC(C)S(=O)(=O)Nc1ccc(F)c(Oc2ccc3ncn(CCC4CCN(C(=O)OC(C)(C)C)CC4)c(=O)c3c2)c1C#N (centres unmarked) [Example 15, tert-butyl 4-[2-[6-[2-cyano-6-fluoro-3-(sec-butylsulfonylamino)phenoxy]-4-oxo-quinazolin-3-yl]ethyl]piperidine-1-carboxylate] | 4040 | 78.9 | 50.4 | 93.5
CCN(C)S(=O)(=O)Nc1ccc(F)c(Oc2ccc3ncn(CCN4CCN(C(=O)OC(C)(C)C)CC4)c(=O)c3c2)c1C#N [Example 27, tert-butyl 4-[2-[6-[2-cyano-3-[[ethyl(methyl)sulfamoyl]amino]-6-fluoro-phenoxy]-4-oxo-quinazolin-3-yl]ethyl]piperazine-1-carboxylate] | 6860 | 6.99 | 16.3 | 28.4
CCN(C)S(=O)(=O)Nc1ccc(F)c(Oc2ccc3ncn(CCCC(=O)OC(C)(C)C)c(=O)c3c2)c1C#N [Example 1, tert-butyl 4-[6-[2-cyano-3-[[ethyl(methyl)sulfamoyl]amino]-6-fluoro-phenoxy]-4-oxo-quinazolin-3-yl]butanoate] | 2360 | 19.8 | 15.3 | 26.7
CC(C)(C)OC(=O)N1CCC(CCn2cnc3ccc(Oc4c(F)ccc(NS(=O)(=O)C5CCCC5)c4C#N)cc3c2=O)CC1 [Example 17, tert-butyl 4-[2-[6-[2-cyano-3-(cyclopentylsulfonylamino)-6-fluoro-phenoxy]-4-oxo-quinazolin-3-yl]ethyl]piperidine-1-carboxylate] | 1140 | 57.1 | 12.3 | 24.6
N#Cc1c(NS(=O)(=O)C2CCCC2)ccc(F)c1Oc1ccc2ncn(CCCc3ccccc3)c(=O)c2c1 [Example 11, N-[2-cyano-4-fluoro-3-[4-oxo-3-(3-phenylpropyl)quinazolin-6-yl]oxy-phenyl]cyclopentanesulfonamide] | 908 | 52.5 | 24.4 | 50.5
